{"source": "ChEMBL document CHEMBL1201862", "about": "“PubChem BioAssay data set” (2004)", "key": {"[1]": {"biological_target": "T1, Microphthalmia-associated transcription factor (Homo sapiens, UniProt O75030)", "T1 sequence (O75030 whole entry)": "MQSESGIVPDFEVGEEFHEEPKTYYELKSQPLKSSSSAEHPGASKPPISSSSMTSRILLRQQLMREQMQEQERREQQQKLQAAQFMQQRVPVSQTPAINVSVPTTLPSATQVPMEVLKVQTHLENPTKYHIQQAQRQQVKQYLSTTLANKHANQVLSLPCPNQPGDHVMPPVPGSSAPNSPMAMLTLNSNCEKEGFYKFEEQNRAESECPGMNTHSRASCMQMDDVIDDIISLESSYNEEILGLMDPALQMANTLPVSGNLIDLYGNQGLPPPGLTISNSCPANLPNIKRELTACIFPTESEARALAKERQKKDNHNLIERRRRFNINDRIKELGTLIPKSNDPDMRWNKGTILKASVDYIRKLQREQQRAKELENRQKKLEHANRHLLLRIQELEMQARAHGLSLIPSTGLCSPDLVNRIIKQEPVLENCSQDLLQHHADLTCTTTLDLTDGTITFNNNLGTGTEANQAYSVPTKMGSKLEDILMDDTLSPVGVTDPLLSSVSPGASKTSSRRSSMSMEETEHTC", "test": "TRPM1 promoter luciferase signal decrease, dose response, MITF inhibitor project, cell-based, SK-MEL-5, cherry-picked, set 3 (AID 493073)", "type": "functional"}, "[2]": {"biological_target": "T2, Apoptotic protease-activating factor 1 (Homo sapiens, UniProt O14727)", "T2 sequence (O14727 whole entry)": "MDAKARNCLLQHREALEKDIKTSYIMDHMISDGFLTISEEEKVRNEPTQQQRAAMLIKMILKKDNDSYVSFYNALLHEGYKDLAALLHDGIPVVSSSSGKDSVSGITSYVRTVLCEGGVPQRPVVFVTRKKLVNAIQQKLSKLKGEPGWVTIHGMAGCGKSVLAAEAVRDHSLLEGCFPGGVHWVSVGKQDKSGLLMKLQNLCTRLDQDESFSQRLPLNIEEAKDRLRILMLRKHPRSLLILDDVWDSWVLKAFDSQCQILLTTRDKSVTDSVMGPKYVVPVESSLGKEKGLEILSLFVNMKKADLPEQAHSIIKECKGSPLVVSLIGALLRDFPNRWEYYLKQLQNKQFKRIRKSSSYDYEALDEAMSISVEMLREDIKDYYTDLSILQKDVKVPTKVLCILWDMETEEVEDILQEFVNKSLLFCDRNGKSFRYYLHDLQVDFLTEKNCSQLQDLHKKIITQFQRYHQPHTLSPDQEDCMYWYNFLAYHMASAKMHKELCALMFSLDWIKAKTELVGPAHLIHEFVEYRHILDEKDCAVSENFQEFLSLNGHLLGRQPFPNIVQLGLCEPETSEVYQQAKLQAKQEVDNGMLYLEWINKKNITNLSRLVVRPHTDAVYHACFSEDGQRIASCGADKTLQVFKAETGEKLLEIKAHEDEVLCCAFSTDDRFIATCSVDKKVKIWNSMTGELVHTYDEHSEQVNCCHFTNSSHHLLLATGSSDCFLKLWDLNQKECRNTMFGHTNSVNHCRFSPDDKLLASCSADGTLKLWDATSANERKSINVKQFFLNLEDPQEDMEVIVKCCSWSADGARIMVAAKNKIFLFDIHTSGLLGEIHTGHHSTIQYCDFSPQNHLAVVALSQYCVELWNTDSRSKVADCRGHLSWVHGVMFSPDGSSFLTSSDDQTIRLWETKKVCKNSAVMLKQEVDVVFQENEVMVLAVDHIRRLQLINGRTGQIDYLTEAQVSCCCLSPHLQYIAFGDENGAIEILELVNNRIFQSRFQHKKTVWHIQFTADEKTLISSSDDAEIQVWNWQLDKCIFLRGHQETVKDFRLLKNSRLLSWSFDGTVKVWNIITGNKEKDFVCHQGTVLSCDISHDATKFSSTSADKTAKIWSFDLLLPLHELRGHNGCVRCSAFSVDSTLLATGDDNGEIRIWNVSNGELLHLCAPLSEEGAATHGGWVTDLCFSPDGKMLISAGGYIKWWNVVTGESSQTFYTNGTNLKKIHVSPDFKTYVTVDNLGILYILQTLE", "type": "functional"}, "Beta Lactamase": {"biological_target": "Beta Lactamase (Pseudomonas aeruginosa, UniProt Q932Y6)", "sequence (Q932Y6 whole entry)": "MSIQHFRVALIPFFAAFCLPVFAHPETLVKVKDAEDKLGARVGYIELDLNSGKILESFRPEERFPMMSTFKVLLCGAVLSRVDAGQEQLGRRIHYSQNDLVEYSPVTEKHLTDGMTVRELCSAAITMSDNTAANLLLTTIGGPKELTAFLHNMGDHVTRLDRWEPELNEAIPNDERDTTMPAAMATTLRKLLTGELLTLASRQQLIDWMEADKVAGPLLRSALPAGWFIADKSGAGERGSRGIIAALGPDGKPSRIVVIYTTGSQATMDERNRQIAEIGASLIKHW", "test": "beta-lactamase reporter inhibitor potency, dose response, artefact control for TLR9-MyD88 binding inhibitor project, BLA reporter cells, FRET fluorescence (AID 588341);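 further: cell based assay in CHO-K1 cells stably expressing beta-lactamase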", "type": "cell-based"}, "[3]": {"biological_target": "Heat shock 70 kDa protein 1A (Homo sapiens, UniProt P0DMV8)", "sequence (P0DMV8 whole entry)": "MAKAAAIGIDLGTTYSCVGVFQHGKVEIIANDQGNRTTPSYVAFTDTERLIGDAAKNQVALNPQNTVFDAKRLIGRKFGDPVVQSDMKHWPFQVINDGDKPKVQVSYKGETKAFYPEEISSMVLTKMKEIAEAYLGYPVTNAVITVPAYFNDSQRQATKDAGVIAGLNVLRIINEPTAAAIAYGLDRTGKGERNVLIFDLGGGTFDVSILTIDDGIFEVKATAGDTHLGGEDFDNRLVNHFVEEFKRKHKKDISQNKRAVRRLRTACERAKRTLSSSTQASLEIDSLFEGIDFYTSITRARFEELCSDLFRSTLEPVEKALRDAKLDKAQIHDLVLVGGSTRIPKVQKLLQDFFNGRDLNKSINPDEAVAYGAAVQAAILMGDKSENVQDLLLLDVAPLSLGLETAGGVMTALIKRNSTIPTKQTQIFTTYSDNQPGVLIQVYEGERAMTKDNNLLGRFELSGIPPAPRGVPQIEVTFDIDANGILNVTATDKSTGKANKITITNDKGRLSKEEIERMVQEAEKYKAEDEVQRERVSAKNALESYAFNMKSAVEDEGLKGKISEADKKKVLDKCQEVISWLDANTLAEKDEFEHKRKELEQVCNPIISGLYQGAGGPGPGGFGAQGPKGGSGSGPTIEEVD", "test": "Hsp70 inhibitors, probe displacement, primary screen, biochemical, fluorescence polarization (AID 583)"}, "[4]": {"test": "cytotoxicity toward HT-29 cells – cell-based, CellTiter-Glo luminescence, IC50, dose response (AID 1117330)", "type": "functional"}}, "note": "Activity calls are given as the source filed them."}
{"smiles": "CC1(C)Cc2ccccc2C2=NNC(=O)C2=N1", "values": [{"measurement": "AC50", "setting": "[1]", "value": "3.62 µM (active)"}, {"measurement": "IC50", "setting": "[2]", "value": "14 µM (active)"}]}
{"smiles": "O=[N+]([O-])c1ccc(Sc2cccc[n+]2[O-])c2nonc12", "values": [{"measurement": "IC50", "setting": "Beta Lactamase", "value": "7.63 µM (active)"}]}
{"smiles": "Oc1c(Cl)cc(Cl)c(Cl)c1Cc1c(O)c(Cl)cc(Cl)c1Cl", "note": "[HEXACHLOROPHENE]", "values": [{"measurement": "IC50", "setting": "[3]", "value": "19.5 µM (active)"}, {"measurement": "IC50", "setting": "[4]", "value": "0.46 µM (active)"}]}
